Test results as given in PubChem BioAssay (NCI).
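Five compound concentrations were applied to cells in 96-well plates for 48 hours; endpoints were derived by simple linear interpolation of the resulting dose-response curve. The concentration for full growth arrest is given as TGI.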

Experiments:
Test in all cases: inhibition of tumour cell growth, NCI panel, 48 h
UACC-62 melanoma = system: UACC-62 melanoma
OVCAR-4 ovarian = system: OVCAR-4 ovarian
A549 NSCLC = system: A549 NSCLC
MCF7 breast = system: MCF7 breast
M14 melanoma = system: M14 melanoma
HCT-15 colon = system: HCT-15 colon
KM12 colon = system: KM12 colon
SK-MEL-5 melanoma = system: SK-MEL-5 melanoma
TK-10 renal = system: TK-10 renal
PC-3 prostate = system: PC-3 prostate
MALME-3M melanoma = system: MALME-3M melanoma
SNB-75 CNS = system: SNB-75 CNS
MDA-MB-435 = system: MDA-MB-435
ACHN renal = system: ACHN renal
OVCAR-8 ovarian = system: OVCAR-8 ovarian
MDA-N = system: MDA-N
BT-549 breast = system: BT-549 breast
786-0 renal = system: 786-0 renal

Measured: TGI

CC12CCCC(C(=O)O)(C1)[C@H](C(C)(C)C(=O)O)CC2 (stereo partly drawn)
> 100 µM: all assays above
